Data reported in patent US20210000730A1, “COMPOSITION COMPRISING OPTICAL CLEARING AGENT FOR IMPROVING OPTICAL CHARACTERISTIC OF SKIN” (LG HOUSEHOLD & HEALTH CARE LTD., priority 2018, published 2021).
“Also recorded” adds a separate entry of the source.

System: corneum of subjects collected using corneum tape
Assay: Reduction of light scattering of corneum tape, dark field image of polarization microscope with image analysis
Settings: washed and dried after 3~4 hours
From the text: The bright field image is a basic observation method of simply magnifying a sample without a unique optical unit and it is suitable for confirming the structure of the sample, but it is not appropriate for confirming the scattering light. The dark field image is an observation method of inducing the direct illumination light reaching the sample out, and collecting only the scattering light from the sample with objective lens, and the light from the upper light source of the microscope is scattered from the keratinocytes and appears white, and as the scattering decreases, it appears black.
The numerical value of the analyzed image is expressed in the range of 30-200, and the more the white image is, the higher the value is. The average value of the image numerical value of the unapplied site and the average value of the image numerical value of the applied site were obtained, and the reduction ratio of the image numerical value of the applied site compared to the unapplied site was calculated as a percentage.
On the other hand, to compare the effect of the present disclosure by relative values at the same concentration, the solution of urea, glycerol, sucrose, sodium lactate, polyethylene glycol 400 and hexanediol of the same concentration (10% by weight) was prepared and compared and evaluated (FIG. 3a). […]

Q: How did the “reduction of light scattering compared to the control group (water)” value (10% of urea, 100 ul applied) turn out when `NC(N)=O` [urea] was run?
A: 17%

Q: And the “light scattering of corneum after treatment, washing and drying (photograph, dark field image)” value (urea applied to corneum tape, control water)?
A: the scattering was reduced and it appeared transparent; also recorded: corneum scattering was reduced and appeared black
